The term melting point denotes the temperature, or range, at which the solid turns liquid. The Ki is the dissociation constant of the complex between target and ligand, obtained from inhibition or displacement. Higher therefore signals a looser hold on the target.

This note sets out measurements from patent publication USRE47475E1, “Selective agents for pain suppression” (WiSys Technology Foundation, Inc., priority 2002, dated 2019).

One series relates to rhesus monkeys. Kind of series: conflict model of anxiolytic activity which also measures sedation. The format is in vivo. The conditions noted are these: for sedative activity (conflict model): intravenously; for anxiolytic effect (conflict model): intravenously in propylene glycol/water. The method, then: The data in FIGS. 21A-21F reflect the ability of the compounds or drugs to exert an anxioyic effect in rhesus monkeys (J. Rowlett, J. M. Cook et al., unpublished results) when given intravenously in propylene glycol/water solution. This is the conflict model of anxiolytic activity which also measures sedation. […] In FIG. 21B, SH-053-2′F (JY-XHE-053) is anxiolytic at a dose of greater than 0.13 mg/kg, but exerts only some slight sedation at doses greater than 1.2 mg/kg (responses decrease). In FIG. 21C it is clear the S-enantiomer of SH-053-2′F—S—CH3 is anxiolytic with no sedation up to 10-18 mg/kg, which is the highest dose tested.

The test system of series [1] is neuropathic pain after CCI of the sciatic nerve. Briefly: chronic constriction injury (CCI) model, mechanical sensitization (von Frey filaments). The format is in vivo, mice. As to the method:
In addition, the pro- or antinociceptive effects of the compounds of the present invention are analyzed in the chronic constriction injury (CCI) model. The GABAA receptor subunit selective test compounds of the present invention are analysed in the CCI model in 7-8-week-old C57BL/6 mice. See Bennett, G. J. & Xie, Y. K. A peripheral mononeuropathy in rat that produces disorders of pain sensation like those seen in man. […] Seven to eight week old mice are anesthetized with isofluran. Unilateral constriction injury of the left sciatic nerve just proximal to the trifurcation is performed with three loose ligatures. In sham-operated animals the sciatic nerve is exposed and the connective tissue is freed, but no ligatures are applied. […] Heat hyperalgesia, cold allodynia and mechanical sensitization are assessed 7-9 days after surgery. Mechanical sensitivity is assessed with electronic von Frey filaments (IITC).
Pain studies—Neuropathic pain: HZ166 and gabapentin were analyzed in the chronic constriction injury (CCI) model. Unilateral constriction injury of the left sciatic nerve just proximal to the trifurcation was performed as described previously (Bennett and Xie, 1988). Anesthesia was induced and maintained by 2% isoflurane, combined with oxygen (30%). The sciatic nerve was exposed at the mid-thigh level proximal to the sciatic trifurcation by blunt dissection through the biceps femoris muscle. […] of nerve were freed of adhering tissue and three chromic gut ligatures (4/0) (Ethicon) were loosely put around the nerve with about 1 mm spacing. The ligatures were tied until they elicited a brief twitch in the hindlimb. The surgical wound was closed in layers. Heat hyperalgesia and mechanical sensitization were assessed 7-16 days after surgery.
Pain Studies—Mechanical sensitization: Mechanical sensitivity was assessed with dynamic von Frey filaments (IITC, Woodland Hills, Calif.). 4-5 measurements were made for each time point and animal and averaged. Measurements of paw withdrawal thresholds of the injured paw and of the contralateral paw were made alternately.
Statistical Analysis: For all different doses and vehicle, baseline paw withdrawal thresholds/latencies on day 7 after nerve ligation or on day 2 after zymosan A injection were subtracted from all later withdrawal thresholds and the area under the curve (AUC) was calculated. Drug effects were expressed as percent maximum possible effect (MPE) calculated from comparisons of paw withdrawal latencies or thresholds obtained prior to surgery or inflammation and before and after drug treatment. […] Unless otherwise indicated, statistical comparisons were made with one-way analysis of variance (ANOVA) followed by Scheffe's post hoc test. P values<0.05 were considered significant.

For series [2], the target named is T1, GABAA/α5 (α5β3γ2 GABAA receptor) (Homo sapiens, UniProt P18507+P31644).
T1 construct: expressed in transfected cells
Kind of series: competitive binding assay with [3H]flunitrazepam. As to the method:
(§1) Membranes were harvested with a Brandel cell harvester followed by three ice-cold washes onto polyethyleneimine-pretreated (0.3%) Whatman GF/C filters. Filters were dried overnight and then soaked in Ecoscint, a liquid scintillation cocktail (National Diagnostics; Atlanta, Ga.). Bound radioactivity was quantified by liquid scintillation counting. Membrane protein concentrations were determined using an assay kit from Bio-Rad (Hercules, Calif.) with bovine serum albumin as the standard.
as §1, with “The GABAA subunit selectivity of several compounds prepared as described above were determined using competitive binding assays. […] Membranes” for “Membranes”

Series [3] concerns the target T2, GABAA/α3 (α3β3γ2 GABAA receptor) (Homo sapiens, UniProt P18507+P34903).
T2 construct: expressed in transfected cells
Kind of series: competitive binding assay with [3H]flunitrazepam. The following applies: Binding Affinity at GABAA/α3, Table 4, stereoisomers. As to the method: as §1
as §1, with “The GABAA subunit selectivity of several compounds prepared as described above were determined using competitive binding assays. […] Membranes” for “Membranes”

Series [4] deals with T3, GABAA/α1 (α1β3γ2 GABAA receptor) (Homo sapiens, UniProt P14867+P18507).
T3 construct: expressed in transfected cells
Kind of series: competitive binding assay with [3H]flunitrazepam. The conditions noted are these: Binding Affinity at GABAA/α1, Table 4, stereoisomers. As to the method: as §1
as §1, with “The GABAA subunit selectivity of several compounds prepared as described above were determined using competitive binding assays. […] Membranes” for “Membranes”

The target in series [5] is T4, GABAA/α2 (α2β3γ2 GABAA receptor) (Homo sapiens, UniProt P18507+P47869).
T4 construct: expressed in transfected cells
Briefly: competitive binding assay with [3H]flunitrazepam. The conditions noted are these: Binding Affinity at GABAA/α2, Table 4, stereoisomers. As to the method: as §1
as §1, with “The GABAA subunit selectivity of several compounds prepared as described above were determined using competitive binding assays. […] Membranes” for “Membranes”

`CCOC(=O)c1ncn2c1CN=C(c1ccccc1)c1cc(Cl)ccc1-2`: the melting point is 174 to 175 °C.
`CNC1=Nc2ccc(C#C[Si](C)(C)C)cc2C(c2ccccc2)=NC1` yielded a melting point of 210 to 211 °C.
The molecule `C[Si](C)(C)C#Cc1ccc2c(c1)C(c1ccccn1)=NCC(=O)N2` gave a melting point of 242 to 243 °C.
In turn, `CN1C(=O)CN=C(c2ccccn2)c2cc(C#C[Si](C)(C)C)ccc21` showed a melting point of 194 to 195 °C.
The molecule `C#Cc1ccc2c(c1)C(c1ccccn1)=NCC(=O)N2C` came in with a melting point of 190 to 191 °C.
`CCOC(=O)c1ncn2c1CN=C(c1ccccn1)c1cc(C#C[Si](C)(C)C)ccc1-2` came in with a melting point of 205 to 206 °C.
The same measure, in the same setting: the result for `O=C(OCC(Cl)(Cl)Cl)c1ncn2c1CN=C(c1ccccc1)c1cc(Br)ccc1-2` reads 113 to 116 °C.
Molecule `C[Si](C)(C)C#Cc1ccc2c(c1)C(c1ccccc1)=NCc1c(C(=O)OCC(F)(F)F)ncn1-2` had a melting point of 107 to 110 °C.
`C#Cc1ccc2c(c1)C(c1ccccc1F)=NC(C)c1c(C(=O)OCC)ncn1-2` (single isomer, unassigned) [SH-053-2′F-R-CH3, 8-Ethynyl-6-(2-fluorophenyl)-4-methyl-4H-2,5,10b-triaza-benzo[e]azulene-3-carboxylic acid ethyl ester]: in the series with rhesus monkeys, the “sedative activity (conflict model)” value is on record as “not sedating” and the “anxiolytic effect (conflict model)” value was “only a weak anxiolytic”.
As to `C#Cc1ccc2c(c1)C(c1ccccc1F)=NC(C)c1c(C(=O)OCC)ncn1-2` (single isomer, unassigned) [SH-053-2′F-S-CH3, 8-Ethynyl-6-(2-fluorophenyl)-4-methyl-4H-2,5,10b-triazabenzo[e]azulene-3-carboxylic acid ethyl ester], the “no sedation up to dose” value with rhesus monkeys (conflict model) is 10 to 18 mg/kg. Further, the “anxiolytic effect (conflict model)” value in the series on rhesus monkeys is recorded as “anxiolytic”.
`C#Cc1ccc2c(c1)C(c1ccccc1)=NCc1c(C(=O)OCC(F)(F)F)ncn1-2` [DM-II-20, Trifluoroethyl 8-acetylenyl-6-phenyl-4H-benzo[f]imidazo[1,5-a][1,4]diaze-pine-3-carboxylate]: the melting point lay within 188 to 190 °C.
For `CCOC(=O)c1ncn2c1CN(C)C(=O)c1cc(F)ccc1-2` [Flumazenil, flumazenil, reference compound], the “AUC of mechanical PWT, HZ166 followed by flumazenil” value in series [1] (HZ166 16 mg/kg i.p., flumazenil 10 mg/kg i.p. 45 min later, n=6) came out at 0.54 ± 0.25 g·h. Moreover, in series [1] (flumazenil 10 mg/kg i.p., HZ166 16 mg/kg), the “effect on the antihyperalgesic effect of HZ166” value is on record as “almost completely reversed”.
Take `C#Cc1ccc2c(c1)C(c1cccs1)=NCc1c(C(=O)OCC)ncn1-2` [JC-221, Ethyl 8-acetyleno-6-(2′-thienyl)-4H-benzo[f]imidazo[1,5-a][1,4]diazepine-3-carboxylate]: in series [2] (Binding Affinity at GABAA/α5, Table 3), the Ki stood at 14.5 nM.
Take `C#Cc1ccc2c(c1)C(c1ccccn1)=NC(C)c1c(C(=O)OCC)ncn1-2` (stereo not drawn) [SH-053-2′N-S-CH3, 8-Ethynyl-4-methyl-6-pyridin-2-yl-4H-2,5,10b-triaza-benzo[e]azulene-3-carboxylic acid ethyl ester]: the Ki turned out to be 744 nM in series [2] (Binding Affinity at GABAA/α5, Table 4, stereoisomers); 2650 nM in series [3]; 6.95 µM in series [4]; 2330 nM in series [5].
Turning to `C#Cc1ccc2c(c1)C(c1ccccc1)=NCc1c(C(=O)OCC)ncn1-2` [XHE-II-053, Ethyl 8-acetylenyl-6-phenyl-4H-benzo[f]imidazo[1,5-a][1,4]diazepine-3-carboxylate], in the series with rhesus monkeys, the “sedative activity (conflict model)” value was “no sedative activity” and the “anxiolytic effect (conflict model)” value is “anxiolytic”. For the same molecule, the “analgesic effect, mechanical sensitivity (von Frey) in CCI model” value in series [1] (10 mg/kg i.p.) is “significantly analgesic”. Moreover, the “analgesic effects in the chronic constriction injury model of neuropathic pain” value in series [1] (mouse, in vivo) was “analgesic effects”.
